# Experimental data taken from patent US9265754B2, “Use of 1-{4-[1-(4-cyclohexyl-3-trifluoromethyl-benzyloxyimino)-ethyl]-2-ethyl-benzyl}-azetidine-3-carboxylic acid in treating symptoms associated with rett syndrome” (Novartis AG, priority 2007, dated 2016).
# How the values were obtained:
# [1] = system: patients with relapsing MS; test: Phase II trial in relapsing MS: depressive symptoms by Beck Depression Inventory second edition (BDI-II); assay type: in vivo, human; settings: for BDI-II score, change from baseline during core study: 6 months core study
# Protocol: In this study, depressive symptoms were assessed by means of the Beck Depression Inventory second edition (BDI-II).
# Patients with relapsing MS (relapsing-remitting or secondary progressive) were randomized to receive placebo or FTY720 1.25 or 5 mg/day, for 6 months (the core study). At the end of this period, placebo-treated patients were re-randomized to one of the two FTY720 doses, while those originally randomized to FTY720 continued treatment at the same doses. After approximately 18-24 months, patients receiving FTY720 5 mg, were switched to 1.25 mg in view of evidence that the higher dose conferred no efficacy benefit over the lower dose.
# The BDI-II was administered at baseline, and at 3 and 6 months during the core study and at 12 and 24 months during the extension phase (i.e. 6 and 18 months after the start of the extension phase). This is a 21-item self-report scale measuring various symptoms and attitudes associated with depression. Respondents rate depressive symptoms experienced during the past two weeks on a 4-point scale, coded 0 to 3 by increasing order of severity. A total score across all 21 items can be generated, with lower total scores indicating lower overall severity of depressive symptoms. BDI-II total scores of 14 or above are indicative of clinical depression. Ny reduction in the BDI-II score indicated an improvement in depression.
# Of the 281 patients originally randomized to treatment, 255 completed the core study. BDI-II scores at baseline and 6 months were available in 239 patients.
# BDNF = test: In vivo S1P receptor modulator induced BDNF production (Western blot of cortex); set-up: species or system rat; settings: female DA rats
# Excerpt: Shown on the y-axis is the relative intensity of BDNF signal of animals treated with FTY720 vs control animals that had received vehicle (i.e., ratio of signal from FTY720-treated rats divided by signal from vehicle-treated rats, n=3 rats/group). On the x axis, the first two bars come from the frontal cortex, the second two from the parietal cortex and in each case the white bar represents the vehicle treated animals and the black bar represents the FTY720 treated animals.
# N=3 animals each were treated with either vehicle, 0.1 mg/kg/d FTY720, 0.3 mg/kg/d FTY720 or 1 mg/kg/d FTY720.
# Female DA rats were treated for 9 days (5 days, 2 day pause, 4 days) with FTY720 p.o.
# Expt 1: 0.3 mg/kg/d vs. vehicle.
# One day after the last treatment, the rats were perfused with ice-cold PBS and different CNS regions were isolated.
# Female DA rats were treated for 9 days (5 days, 2 day pause, 4 days) with FTY720 p.o. 0.1; 0.3 or 1 mg/kg/d vs vehicle
# [2] = system: patients with relapsing MS; settings: cited from earlier work
# [3] = 281 patients with relapsing MS, 6 months, 1.25 and 5 mg once daily
compound,measurement,setting,value
"CCCCCCCCc1ccc(CCC(N)(CO)CO)cc1 [FTY720, 2-amino-2-[2-(4-octylphenyl)ethyl]propane-1,3-diol]","BDI-II score, change from baseline during core study",[1]; 1.25 mg/day,decreased from baseline
same,change in BDI-II scores from baseline vs placebo-treated patients,"[1]; 1.25 mg/day, at 6 months",significantly greater
same,"BDI-II score, change from baseline during core study",[1]; 5.0 mg/day,remained consistent
same,difference in changes in BDI-II scores between the two doses,"[1]; 1.25 vs 5.0 mg/day, 5% level",not significant
same,BDNF in the cortex (relative intensity of BDNF signal vs vehicle),"BDNF; 9-day treatment, 0.3 mg/kg/d p.o., frontal and parietal cortex, FIG. 1",induction of BDNF
same,"BDNF in the cortex, multiple doses","BDNF; 9-day treatment, 0.1, 0.3 or 1 mg/kg/d p.o., FIGS. 2A-2B",induction of BDNF
same,reduction of annualized relapse rate compared with placebo,[2]; [3],more than 50%
same,reduction of gadolinium-enhanced MRI lesions compared with placebo,[2]; [3],up to 80%
same,low disease activity on MRI and relapses during dose-blinded extension phase,[2]; patients treated for up to 24 months,sustained
